From patent US20250250582A1, “Plant Cells and Plants Modified to Increase Herbicide Resistance and Stress Tolerance and Methods of Using the Same” (The Board of Trustees of the University of Arkansas, priority 2018, published 2025)
Several values for one entry are separate records, joined by “and”; a condition that tells them apart may be missing. Equal entries are not always repeated.

Tests used:
[1] = tested on: multiple-resistant E. colona (ECO-R); assay: RNA-sequencing differential gene expression, herbicide-treated vs nontreated ECO-R; settings: 24 h
From the text: (§1) Pure-line generated seed of each accession were germinated in pots containing potting soil within a temperature/light controlled growth chamber set to a 14-hr day length, 33 C day temperature, and 24 C night time to simulate environmental conditions early in the rice growing season. A single plant was maintained in each of the pots and used for the treatments; two pots were used as individual biological replicates. […] Pots for each of the respective treatments were labeled as either ECO-R/S-T for the treated samples and ECO-R/S-N for the non-treated counterpart. To minimize the effect that the sprayer may play in the application, both plants of the ECO-R and ECO-S were treated at the same time. After approximately 30 minutes, allowing for the plants to dry, the treated and non-treated plants of both accessions were moved back into the growth chamber. Precisely 24-hours after application, the aboveground portion of each of the plants were removed and immediately frozen in liquid nitrogen to cease all biological function. Samples were then transferred to RNAlater™-ICE (Invitrogen, Carlsbad CA, USA) for shipment to the Clemson University Genomics Institute (CUGI), in Clemson, South Carolina.
(§2) RNA was extracted from the young leaf tissues of both replications for the ECO-R and ECO-S, T and N samples, at Clemson University. Total RNA was extracted with a kit according to the manufactures instructions. The extracted RNA was treated with DNase (Invitrogen, Calsbad, CA, USA) to remove any DNA contamination prior to further processing. The samples were prepared for sequencing by CUGI. For library preparation, the TruSeq Stranded Total RNA kit (Illumina Inc., San Diego, CA, USA) was used according to the instructions provided by the manufacturer to produce a paired-end library for sequencing. Ribosomal RNA was removed using target-specific oligonucleotides paired with rRNA removal beads, removing all cytoplasmic and mitochondrial rRNA that may result in poor quality results. RNA was fragmented and reverse transcribed to cDNA using random primers, followed by a second strand cDNA synthesis. Each fragment is then ligated with an additional ‘A’ and an adapter for sequencing. The PCR enriched product is then used to create the final cDNA library. All samples were sequenced on an Illumina Hiseq 2500 platform housed in the Holdings Cancer Center at the Medical University of South Carolina, Charleston, SC, USA. Samples, regardless of treatments or replication were ran across three lanes to reduce sequencing errors from the equipment. The resulting data were processed by CUGI.
(§3) A de novo transcriptome was assembled from the treatments described for this experiment as well as several treatments, which included herbicides profiled in ECO-R. The treatments were applied to both ECO-R and ECO-S samples with two replications as described previously. In total, 20 individual plants, from both the ECO-R and ECO-S accessions, as well as T and NT samples, were used for the assembly. The transcriptome was assembled using the Trinity RNA-Seq pipeline (Broad Institute, Cambridge, MA, USA). Raw data were assessed for quality using FastQC (Babraham Institute, Cambridge, UK) and then processed to remove adapter sequences and low quality bases using a sliding window method. The processed data were then rerun using FastQC to ensure high quality reads. Using the TrinityRNASeq 2.2.0 software, the samples were normalized, by replication, using a coverage size of 100 and kmer of 32. The normalized reads were then assembled as transcripts and genes using Trinity with the stranded library set as the default.

[2] = tested on: ECO-R compared to ECO-S after herbicide treatment; assay: RNA-sequencing differential gene expression, ECO-R-T compared to ECO-S-T
From the text: as §1, §2, §3

SMILES: CCC(=O)Nc1ccc(Cl)c(Cl)c1 [propanil]
- ABC transporter C family member 10 Fold Change ([1]; ECO-R-T vs ECO-R-N): 7.4 fold
- ACC oxidase fold change ([1]; ECO-R-T vs ECO-R-N): −4.5 fold
- ACCase 2 fold change ([1]; ECO-R-T vs ECO-R-N): −10.2 fold
- ACCase fold change ([1]; ECO-R-T vs ECO-R-N): −9.7 fold
- ADP sugar pyrophosphatase fold change ([1]; ECO-R-T vs ECO-R-N): −7.2 fold
- Beta-glucosidase 22 fold change ([1]; ECO-R-T vs ECO-R-N): 3.6 fold
- CYP72A11 Fold Change ([1]; ECO-R-T vs ECO-R-N): 3.1 fold
- CYP72A13 Fold Change ([1]; ECO-R-T vs ECO-R-N): 3.8 fold
- CYP72A15 Fold Change ([1]; ECO-R-T vs ECO-R-N): 2.6 fold and 3.4 fold and 2.9 fold
- CYP89A2 Fold Change ([1]; ECO-R-T vs ECO-R-N): 2.5 fold and 3.8 fold and 3.6 fold
- CYP709B1 Fold Change ([1]; ECO-R-T vs ECO-R-N): 7.0 fold
- ERF7 fold change ([1]; ECO-R-T vs ECO-R-N): 6.7 fold
- ERF060 fold change ([1]; ECO-R-T vs ECO-R-N): 2.1 fold
- GST23 Fold Change ([1]; ECO-R-T vs ECO-R-N): 6.7 fold
- GSTU17 fold change ([1]; ECO-R-T vs ECO-R-N): 7.9 fold
- NADH-cytochrome b5 reductase proteins fold change ([1]; ECO-R-T vs ECO-R-N): < −7.4 fold
- NADP-dependent malic enzyme fold change ([1]; ECO-R-T vs ECO-R-N): −9.3 fold
- Stress enhanced protein 2 fold change ([1]; ECO-R-T vs ECO-R-N): 2.5 fold
- UGT73C2 Fold Change ([1]; ECO-R-T vs ECO-R-N): 4.7 fold
- UGT73D1 fold change ([1]; ECO-R-T vs ECO-R-N): 5.3 fold and 6.9 fold and 4.8 fold
- UGT73E1 fold change ([1]; ECO-R-T vs ECO-R-N): 3.0 fold
- UGT74G1 Fold Change ([1]; ECO-R-T vs ECO-R-N): 4.6 fold and 4.5 fold
- UGT75D1 fold change ([1]; ECO-R-T vs ECO-R-N): 7.4 fold
- UGT83A1 Fold Change ([1]; ECO-R-T vs ECO-R-N): 2.3 fold
- acetyl-coenzyme A synthetase fold change ([1]; ECO-R-T vs ECO-R-N): −8.4 fold
- disease resistance protein RPM1 fold change ([1]; ECO-R-T vs ECO-R-N): 7.1 fold
- ferredoxin 6 fold change ([1]; ECO-R-T vs ECO-R-N): < −2.4 fold
- fructose-1,6-bisphosphatase fold change ([1]; ECO-R-T vs ECO-R-N): −9.3 fold
- glutamine synthetase fold change ([1]; ECO-R-T vs ECO-R-N): −10.5 fold
- malate dehydrogenase fold change ([1]; ECO-R-T vs ECO-R-N): −10.8 fold
- peroxidase 5 fold change ([1]; ECO-R-T vs ECO-R-N): −3.1 fold
- phenolic glucoside malonyltransferase 1 fold change ([1]; ECO-R-T vs ECO-R-N): −3.5 fold
- pyruvate dehydrogenase E1 subunit fold change ([1]; ECO-R-T vs ECO-R-N): < −10.4 fold
- pyruvate phosphate dikinase fold change ([1]; ECO-R-T vs ECO-R-N): −12 fold
- ubiquinol cytochrome-c reductase complex core protein fold change ([1]; ECO-R-T vs ECO-R-N): < −8.6 fold
- ATP synthase subunit(s) fold change ([1]; ECO-R-T vs ECO-R-N, repressed): < −10 fold
- TPS6 repression ([1]; ECO-R-T vs ECO-R-N, repressed): 6.1 fold
- sugar transporter ERD6-like 8 repression ([1]; ECO-R-T vs ECO-R-N, repressed): 4.2 fold
- sugar transporter SWEET2a repression ([1]; ECO-R-T vs ECO-R-N, repressed): 3.8 fold
- heat shock proteins fold change ([1]; ECO-R-T vs ECO-R-N, repressed by as much as): ≤ −9.9 fold
- CYP72A14 fold induction ([1]; Echinochloa colona, in vivo): ~3 fold
- ABA 8′-hydroxylase 1 transcripts fold change ([2]; ECO-R-T vs ECO-S-T, 24 h): < −6.5 fold
- ABA receptor PYL5 fold change ([2]; ECO-R-T vs ECO-S-T, 24 h): −4.8 fold
- ABA receptor PYL8 fold change ([2]; ECO-R-T vs ECO-S-T, 24 h): −3.7 fold
- ACC synthase fold change ([2]; ECO-R-T vs ECO-S-T, 24 h): 8.6 fold
- Beta-glucosidase 22 fold change ([2]; ECO-R-T vs ECO-S-T, 24 h): 5.9 fold
- CYP71A1 Fold Change ([2]; ECO-R-T vs ECO-S-T, 24 h): 3.6 fold
- CYP72A15 Fold Change ([2]; ECO-R-T vs ECO-S-T, 24 h): 6.6 fold and 11.3 fold
- DNA-directed RNA polymerase 1 subunit RPA112 III fold change ([2]; ECO-R-T vs ECO-S-T, 24 h): 10.3 fold
- ERF4 fold change ([2]; ECO-R-T vs ECO-S-T, 24 h): 4.3 fold
- ERF7 fold change ([2]; ECO-R-T vs ECO-S-T, 24 h): 8 fold
- ERF11 fold change ([2]; ECO-R-T vs ECO-S-T, 24 h): 3.4 fold
- GST1 fold change ([2]; ECO-R-T vs ECO-S-T, 24 h): 3.9 fold
- GST4 fold change ([2]; ECO-R-T vs ECO-S-T, 24 h): > 5.3 fold
- GSTU17 fold change ([2]; ECO-R-T vs ECO-S-T, 24 h): 10.9 fold
- UGT73D1 fold change ([2]; ECO-R-T vs ECO-S-T, 24 h): 7.3 fold
- UGT88A1 Fold Change ([2]; ECO-R-T vs ECO-S-T, 24 h): 3.2 fold
- UGT88F3 fold change ([2]; ECO-R-T vs ECO-S-T, 24 h): 5.9 fold
- ferredoxin-6 fold change ([2]; ECO-R-T vs ECO-S-T, 24 h): −6.5 fold
- nitrate reductase fold change ([2]; ECO-R-T vs ECO-S-T, 24 h): < −6 fold
- nitrate transporters fold change ([2]; ECO-R-T vs ECO-S-T, 24 h): < −4 fold
- polymerase III subunit 2 fold change ([2]; ECO-R-T vs ECO-S-T, 24 h): 10.8 fold
- trehalose biosynthesis enzymes fold change ([2]; ECO-R-T vs ECO-S-T, 24 h): < −3 fold
- Phosphoenolpyruvate carboxylase (PEPc) kinase 1 fold change ([2]; in vivo): > 5 fold
